Experimental data as given in patent US20250136577A1, “HETEROCYCLIC DERIVATIVES AS MALT1 INHIBITORS” (C4X Discovery Limited, priority 2022, published 2025).

Tests used:
[1] = molecular target: MALT1-GS-Ub (6-His-hMALT-1 residues 339-715 fused to ubiquitin) (Homo sapiens (Human), UniProt Q9UDY8); experiment: MALT1 Protease Assay 1 (Assay 1), cleavage of fluorogenic tetrapeptide substrate; type: biochemical; details: MALT1-GS-Ub 300-600 nM, Ac-LVSR-AMC 100 μM, 30 min preincubation, 60 min read
Procedure: MALT1 Protease Assay 1 (Assay 1)
(§1) MALT1 protease activity was assessed in vitro by measuring the cleavage of a fluorogenic tetrapeptide substrate.
A protein (MALT1-GS-Ub) comprising 6-His-hMALT-1 (residues 339-715), fused to ubiquitin with an 8× GGS linker, was expressed in E. coli, and purified using chitin resin to remove contaminants followed by affinity chromatography purification and size-exclusion chromatography, according to standard protocols.
Briefly, MALT1-GS-Ub (300-600 nM) was incubated with substrate (Ac-LVSR-AMC, 100 μM) in reaction buffer comprising 50 mM HEPES (pH7.0), 25 mM KCl, 0.1% (v/v) CHAPS and 1 mM TCEP.
(§2) Test compounds dissolved in DMSO were dispensed into assay plates (384-well, black, shallow ProxiPlates). 7 μl enzyme solution was added and incubated at room temperature for 30 minutes to allow compound binding to occur. 2 μl substrate solution was then added and the fluorescence (excitation 360 nm, emission 460 nm) read every 15 minutes using a suitable plate reader. Final assay DMSO concentration was 1%. Linearity over 60 minutes was confirmed, and assay signal was calculated by subtracting raw counts at time 0 from those at 60 minutes. % inhibition was calculated for each well, using no enzyme for 100% inhibition controls and no compound for 0% inhibition controls. IC50 values were calculated using GraphPad Prism using a 4-parameter non-linear regression curve fit.

FL hMALT1 enzyme = FL hMALT1 enzyme (Homo sapiens (Human), UniProt Q9UDY8); experiment: MALT1 Protease Assay 2 (Assay 2), higher sensitivity, cleavage of fluorogenic tetrapeptide substrate; type: biochemical; details: FL hMALT1 1-10 nM, Ac-LVSR-AMC 100 μM, 0.7 M sodium citrate, 30 min preincubation, 60 min read
Sequence of FL hMALT1 enzyme (Q9UDY8 whole entry): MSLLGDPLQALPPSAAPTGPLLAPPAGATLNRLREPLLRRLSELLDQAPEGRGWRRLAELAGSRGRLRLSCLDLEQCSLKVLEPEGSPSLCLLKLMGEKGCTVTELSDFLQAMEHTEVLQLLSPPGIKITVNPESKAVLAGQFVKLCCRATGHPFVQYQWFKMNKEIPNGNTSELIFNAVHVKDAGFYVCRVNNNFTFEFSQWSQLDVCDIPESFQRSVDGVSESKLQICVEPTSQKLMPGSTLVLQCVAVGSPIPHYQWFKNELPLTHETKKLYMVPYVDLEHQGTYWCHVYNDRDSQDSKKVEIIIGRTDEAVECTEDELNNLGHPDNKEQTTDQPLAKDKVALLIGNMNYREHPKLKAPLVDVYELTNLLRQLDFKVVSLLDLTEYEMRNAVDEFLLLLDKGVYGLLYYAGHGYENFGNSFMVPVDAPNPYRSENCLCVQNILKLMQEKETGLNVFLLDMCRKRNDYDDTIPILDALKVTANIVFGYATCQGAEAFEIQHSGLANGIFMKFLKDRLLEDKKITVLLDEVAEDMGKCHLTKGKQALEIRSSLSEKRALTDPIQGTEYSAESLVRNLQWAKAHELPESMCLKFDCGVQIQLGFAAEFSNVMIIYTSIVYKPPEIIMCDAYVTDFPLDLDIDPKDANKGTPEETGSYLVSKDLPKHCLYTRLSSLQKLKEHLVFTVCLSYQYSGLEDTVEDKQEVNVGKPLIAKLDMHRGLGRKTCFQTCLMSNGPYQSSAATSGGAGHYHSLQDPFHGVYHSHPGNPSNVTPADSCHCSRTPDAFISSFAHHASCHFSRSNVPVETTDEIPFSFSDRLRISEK
Procedure: MALT1 Protease Assay 2 (Assay 2)
as §1
For a higher sensitivity assay, commercially available FL hMALT1 enzyme (Abcam, 1-10 nM) was incubated with substrate (Ac-LVSR-AMC, 100 μM) in reaction buffer comprising 50 mM HEPES (pH7.0), 25 mM KCl, 0.1% (v/v) CHAPS, 1 mM TCEP and 0.7 M sodium citrate.
as §2

Sequence of MALT1-GS-Ub (6-His-hMALT-1 residues 339-715 fused to ubiquitin) (Q9UDY8 other isoform, or with tags, fused parts or gaps): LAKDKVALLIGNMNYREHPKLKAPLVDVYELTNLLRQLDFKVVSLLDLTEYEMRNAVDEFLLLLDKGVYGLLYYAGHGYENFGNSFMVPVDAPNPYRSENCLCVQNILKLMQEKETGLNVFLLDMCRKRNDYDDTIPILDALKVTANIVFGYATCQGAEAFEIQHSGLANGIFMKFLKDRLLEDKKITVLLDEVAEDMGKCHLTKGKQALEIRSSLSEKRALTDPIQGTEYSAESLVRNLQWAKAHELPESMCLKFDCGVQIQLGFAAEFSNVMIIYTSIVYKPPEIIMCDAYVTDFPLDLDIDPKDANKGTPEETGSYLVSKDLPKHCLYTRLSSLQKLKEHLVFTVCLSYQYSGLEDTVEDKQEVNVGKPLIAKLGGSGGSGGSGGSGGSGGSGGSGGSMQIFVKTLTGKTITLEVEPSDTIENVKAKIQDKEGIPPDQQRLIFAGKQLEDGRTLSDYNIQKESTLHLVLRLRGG

| SMILES | IC50 [1] | IC50 (FL hMALT1 enzyme) |
| --- | --- | --- |
| CC1CN(C(=O)Nc2cnc(-n3nccn3)c(C(F)(F)F)c2)c2cccc(Br)c2O1 (centres unmarked) [Example 5, N-(6-(2H-1,2,3-Triazol-2-yl)-5-(trifluoromethyl)pyridin-3-yl)-8-bromo-2-methyl-2,3-dihydro-4H-benzo[b][1,4]oxazine-4-carboxamide] | 3300 nM | 120 nM |
| N#Cc1cccc2c1CCCN2C(=O)Nc1cnc(-n2nccn2)c(Cl)c1 [Example 7, N-(5-Chloro-6-(2H-1,2,3-triazol-2-yl)pyridin-3-yl)-5-cyano-3,4-dihydroquinoline-1 (2H)-carboxamide] | 6900 nM | 1200 nM |
| O=C(Nc1cnc(-n2nccn2)c(C(F)(F)F)c1)N1CCCc2c(-c3cccnc3)cccc21 [Example 8, N-(6-(2H-1,2,3-Triazol-2-yl)-5-(trifluoromethyl)pyridin-3-yl)-5-(pyridin-3-yl)-3,4-dihydroquinoline-1 (2H)-carboxamide] | 9800 nM | > 10000 nM |
| O=C(Nc1cnc(-n2nccn2)c(C(F)(F)F)c1)N1CCCc2c(-c3ncco3)cccc21 [Example 9, N-(6-(2H-1,2,3-Triazol-2-yl)-5-(trifluoromethyl)pyridin-3-yl)-5-(oxazol-2-yl)-3,4-dihydroquinoline-1 (2H)-carboxamide] | 4600 nM | 2000 nM |
| O=C(Nc1cnc(-n2nccn2)c(C(F)(F)F)c1)N1CCCc2c(-c3nccs3)cccc21 [Example 10, N-(6-(2H-1,2,3-Triazol-2-yl)-5-(trifluoromethyl)pyridin-3-yl)-5-(thiazol-2-yl)-3,4-dihydroquinoline-1 (2H)-carboxamide] | 1500 nM | 1000 nM |
| O=C(Nc1cnc(-n2nccn2)c(C(F)(F)F)c1)N1CCCc2c(-c3ccccc3)cccc21 [Example 12, N-(6-(2H-1,2,3-Triazol-2-yl)-5-(trifluoromethyl)pyridin-3-yl)-5-phenyl-3,4-dihydroquinoline-1 (2H)-carboxamide] | 2300 nM | 650 nM |
| O=C(Nc1cnc(-n2nccn2)c(C(F)(F)F)c1)N1CCCc2c(-c3nncs3)cccc21 [Example 14, N-(6-(2H-1,2,3-triazol-2-yl)-5-(trifluoromethyl)pyridin-3-yl)-5-(1,3,4-thiadiazol-2-yl)-3,4-dihydroquinoline-1 (2H)-carboxamide] | 8500 nM | 8200 nM |
| CC1(C)Cc2c(Br)cccc2N(C(=O)Nc2cnc(-n3nccn3)c(Cl)c2)C1 [Example 15, 5-Bromo-N-(5-chloro-6-(2H-1,2,3-triazol-2-yl)pyridin-3-yl)-3,3-dimethyl-3,4-dihydroquinoline-1 (2H)-carboxamide] | 1300 nM | 440 nM |
| O=C(Nc1cnc(-n2nccn2)c(Cl)c1)N1CCCc2c(C3CC3)cncc21 [Example 22, N-(5-Chloro-6-(2H-1,2,3-triazol-2-yl)pyridin-3-yl)-5-cyclopropyl-3,4-dihydro-1,7-naphthyridine-1 (2H)-carboxamide] | 4000 nM | 4700 nM |
| CC1(C)CN(C(=O)Nc2cnc(-n3nccn3)c(Cl)c2)c2cncc(C3CC3)c2O1 [Example 24, N-(5-Chloro-6-(2H-1,2,3-triazol-2-yl)pyridin-3-yl)-8-cyclopropyl-2,2-dimethyl-2,3-dihydro-4H-pyrido[4,3-b][1,4]oxazine-4-carboxamide] | 2500 nM | 340 nM |
| O=C(Nc1cnc(-n2nccn2)c(Cl)c1)N1C[C@@H]2CCCN2c2c(Br)cncc21 [Example 25, (S)-1-Bromo-N-(5-chloro-6-(2H-1,2,3-triazol-2-yl)pyridin-3-yl)-6a,7,8,9-tetrahydropyrido[3,4-e] pyrrolo[1,2-a]pyrazine-5 (6H)-carboxamide] | 1060 nM | 230 nM |
| O=C(Nc1cnc(-n2nccn2)c(Cl)c1)N1CC2(CCOC2)Oc2c(Br)cncc21 (centres unmarked) [Example 27, 8′—Bromo-N-(5-chloro-6-(2H-1,2,3-triazol-2-yl)pyridin-3-yl)-4,5-dihydro-2H-spiro [furan-3,2′-pyrido[4,3-b][1,4]oxazine]-4′ (3′H)-carboxamide] | 5000 nM | 900 nM |

The next lines start with the values.

| IC50 [1] | IC50 (FL hMALT1 enzyme) | SMILES |
| --- | --- | --- |
| 1300 nM | 1300 nM | CC1(C)CN(C(=O)Nc2cnc(-n3nccn3)c(Cl)c2)c2cccc(Br)c2O1 [Example 13, 8-Bromo-N-(5-chloro-6-(2H-1,2,3-triazol-2-yl)pyridin-3-yl)-2,2-dimethyl-2,3-dihydro-4H-benzo[b][1,4]oxazine-4-carboxamide] |
| 2500 nM | 900 nM | CN1CCN(C(=O)Nc2cnc(-n3nccn3)c(Cl)c2)c2cccc(Br)c21 [Example 16, 5-Bromo-N-(5-chloro-6-(2H-1,2,3-triazol-2-yl)pyridin-3-yl)-4-methyl-3,4-dihydroquinoxaline-1 (2H)-carboxamide] |
| 500 nM | 1500 nM | O=C(Nc1cnc(-n2nccn2)c(Cl)c1)N1CCCc2c(Br)cncc21 [Example 17, 5-Bromo-N-(5-chloro-6-(2H-1,2,3-triazol-2-yl)pyridin-3-yl)-3,4-dihydro-1,7-naphthyridine-1 (2H)-carboxamide] |
| 3300 nM | 590 nM | C#CC1CN(C(=O)Nc2cnc(-n3nccn3)c(Cl)c2)c2cccc(Br)c2O1 (centres unmarked) [Example 20, 8-Bromo-N-(5-chloro-6-(2H-1,2,3-triazol-2-yl)pyridin-3-yl)-2-ethynyl-2,3-dihydro-4H-benzo[b][1,4]oxazine-4-carboxamide] |
| 7300 nM | 1100 nM | O=C(Nc1cnc(-n2nccn2)c(Cl)c1)N1CC2CCCCN2c2c(Br)cncc21 (centres unmarked) [Example 28, 1-Bromo-N-(5-chloro-6-(2H-1,2,3-triazol-2-yl)pyridin-3-yl)-6,6a,7,8,9,10-hexahydro-5H-dipyrido[1,2-a: 3′,4′-e] pyrazine-5-carboxamide] |
| 3800 nM | > 3000 nM | CN1CCN(C(=O)Nc2cnc(-n3nccn3)c(Cl)c2)c2cncc(Br)c21 [Example 29, 8-Bromo-N-(5-chloro-6-(2H-1,2,3-triazol-2-yl)pyridin-3-yl)-1-methyl-2,3-dihydropyrido[3,4-b]pyrazine-4 (1H)-carboxamide] |
| 3000 nM | 260 nM | CN1c2c(Br)cncc2N(C(=O)Nc2cnc(-n3nccn3)c(Cl)c2)CC1(C)C [Example 31, 8-Bromo-N-(5-chloro-6-(2H-1,2,3-triazol-2-yl)pyridin-3-yl)-1,2,2-trimethyl-2,3-dihydropyrido[3,4-b]pyrazine-4 (1H)-carboxamide] |
| 7600 nM | 1500 nM | O=C(Nc1cnc(-n2nccn2)c(Cl)c1)N1CCN(C2CCOCC2)c2c(Br)cncc21 [Example 33, 8-Bromo-N-(5-chloro-6-(2H-1,2,3-triazol-2-yl)pyridin-3-yl)-1-(tetrahydro-2H-pyran-4-yl)-2,3-dihydropyrido[3,4-b]pyrazine-4 (1H)-carboxamide] |
| 3900 nM | 540 nM | O=C(Nc1cnc(-n2nccn2)c(Cl)c1)N1CC(C(F)(F)F)Nc2c(Br)cncc21 (centres unmarked) [Example 37, 8-Bromo-N-(5-chloro-6-(2H-1,2,3-triazol-2-yl)pyridin-3-yl)-2-(trifluoromethyl)-2,3-dihydropyrido[3,4-b]pyrazine-4 (1H)-carboxamide] |
| 730 nM | 120 nM | O=C(Nc1cnc(-n2nccn2)c(Cl)c1)N1CC(C(F)(F)F)Oc2c(Br)cncc21 (centres unmarked) [Example 38, 8-Bromo-N-(5-chloro-6-(2H-1,2,3-triazol-2-yl)pyridin-3-yl)-2-(trifluoromethyl)-2,3-dihydro-4H-pyrido[4,3-b][1,4]oxazine-4-carboxamide] |
